According to patent EP0082577A1, “Fungicidal composition and method of combating fungal growth” (SHELL INTERNATIONALE RESEARCH MAATSCHAPPIJ B.V., priority 1981, dated 1983):
Where a name gives a salt, the structure may show the parent alone.

Key:
Format in all cases: in vivo
[1] = system: Plamopara viticola; experiment: Grapevine leaf disc test: disease suppression; details: alone, 7 days at 21°C
Method: Leaf discs of grapevine (cv. Cabernet Sauvignon) 23mm in diameter, were supported on water agar in petri dishes, and sprayed with various aqueous test preparations. After the spray had dried, the discs were inoculated with Plamopara viticola. The dishes were closed and incubated for 7 days at 21°C. At the end of this period, the percentage area of each disc covered with sporulating downy mildew was estimated, and compared with that on inoculated, untreated control discs.
In this Table, the theorectical degree of disease suppression, assuming that the two fungicides act independently (i.e. additively) is calculated using the formula: [formula] where x and y are the activities of the two components used separately. If the actual degree of disease suppression (as measured in the test) is greater than the calculated value, then the two fungicides have interacted synergistically.

[2] = system: grapevines (cv Sauvignon); experiment: Field spray test on adult fruit-bearing grapevines: phytotoxicity rating; details: mean rating 0-5
Method: (§1) The fungicidal and phytotoxic effects of the sodium salt of N-hydroxy-N-formylalanine in admixture with N-(trichlormethyl- thio)phthalimide were compared to those of the N-hydroxy-N-formylalanine salt alone using the following procedure. The test solutions were sprayed onto adult, fruit-bearing grapevines (cv Sauvignon) at 18 day intervals during June, July and August. Four replicate plots were treated. Controls were left untreated.
(§2) The test solutions contained the active ingredient(s), distilled water and 100ppm of Tween 20 surfactant (Trade mark).
(§3) Assessments of the disease level and phytotoxicity were made 19 days after the 1st treatment, and then after a further 4 weeks (11 days after the 3rd treatment) .
Phytotoxicity is expressed as a mean rating compared with the control according to the criteria, • 0 = absolutely no phytotoxicity • 1 = doubtful occurence of phytotoxicity • 2 = distinct, but very slight phytotoxicity • 3,4 = slight to moderate phytotoxicity • 5 = phytotoxicity of an unacceptable degree.

[3] = system: Plasmopara viticola; experiment: Field spray test on adult fruit-bearing grapevines: disease level; details: percentage of disease level on control vines
Method: as §1, §2
Seven days after the first spray application and 13 days after the third spray application the vines were innoculated with a spore suspension containing Plasmopara viticola.
as §3
The extent of disease control in the test is expressed as a percentage of the disease level occuring on the control vines.

[4] = 250 ppm sodium salt alone, 11 days after 3rd application
[5] = 250 ppm sodium salt alone, 19 days after 1st application
[6] = 500 ppm sodium salt alone, 11 days after 3rd application
[7] = 500 ppm sodium salt alone, 19 days after 1st application

SMILES	Disease Suppression (% of control) Actual ([1]; 1 ppm in spray)	Disease Suppression (% of control) Actual ([1]; 5 ppm in spray)	Disease Suppression (% of control) Actual ([1]; 10 ppm in spray)	PHYTOTOXICITY [2, 4]	PHYTOTOXICITY [2, 5]	PHYTOTOXICITY [2, 6]	PHYTOTOXICITY [2, 7]	DISEASE [3, 4] [%]	DISEASE [3, 5] [%]	DISEASE [3, 6] [%]	DISEASE [3, 7] [%]	Disease Suppression (% of control) Actual ([1]; 7.5 ppm in spray)	Disease Suppression (% of control) Actual ([1]; 15.0 ppm in spray)	Disease Suppression (% of control) Actual ([1]; 30.0 ppm in spray)
O=C1c2ccccc2C(=O)N1SC(Cl)(Cl)Cl [N-(trichloromethylthio) phthalimide, N-(trichloromethylthio)phthalimide, reference compound]	-16.2 % of control	-2.7 % of control	82.4 % of control	–	–	–	–	–	–	–	–	–	–	–
CC(C(=O)O)N(O)C=O (centres unmarked) [sodium salt of N-hydroxy-N-formylalanine]	–	–	–	0.8	0.5	1.5	2.0	26.8	34.7	14.4	17.6	-8.1 % of control	-2.7 % of control	37.8 % of control
